Reference: ChEMBL document CHEMBL5726054, “Substituted bicyclic compounds” (2019)

The compounds below were run against Sphingosine 1-phosphate receptor 1 (Homo sapiens) (UniProt P21453) (assay: hS1P1 ERK Phosphorylation (S1P1 pERK): hS1P1/CHO cells were plated into BD Amine 384-well plates the day before the assay. On the day of the assay, growth medium was removed and replaced with serum-free medium (Ham's F-12 Invitrogen) and incubated for 2 hours. Test compounds pre-diluted in HBSS (Gibco)/20 mM HEPES (Gibco) were transferred to the cell plates and incubated for 7 minutes at 37° C. …).
Sequence of Sphingosine 1-phosphate receptor 1 (Homo sapiens) (P21453 whole entry, looked up): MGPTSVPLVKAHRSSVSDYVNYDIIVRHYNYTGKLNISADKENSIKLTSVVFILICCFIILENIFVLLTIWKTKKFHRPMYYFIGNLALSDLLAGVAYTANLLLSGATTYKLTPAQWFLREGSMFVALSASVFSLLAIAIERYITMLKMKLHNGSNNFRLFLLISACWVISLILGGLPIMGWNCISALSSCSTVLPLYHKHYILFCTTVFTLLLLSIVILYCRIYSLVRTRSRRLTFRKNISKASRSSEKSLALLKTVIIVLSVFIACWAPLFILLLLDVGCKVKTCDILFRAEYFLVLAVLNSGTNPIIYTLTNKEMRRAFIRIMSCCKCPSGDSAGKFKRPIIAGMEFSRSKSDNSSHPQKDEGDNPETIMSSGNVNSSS
With `CCCCCC[C@H]1COc2cc([C@H]3CC[C@](N)(COP(=O)(O)O)C3)ccc2C1` the EC50 was “in the range around 55 nM”.
`CCCC/C=C/[C@@H]1CCc2cc([C@H]3CC[C@](N)(COP(=O)(O)O)C3)ccc2C1` was tested, and the EC50 was “in the range around 55 nM”.
In the case of `CCCCCCC1CCc2cc(C3CCC(N)(COP(=O)(O)O)C3)ccc2O1` (stereo not drawn), the EC50 is reported as “in the range around 55 nM”.
